# From patent US10081632B2, “Substituted tetrahydropyrido[3′,2′:4,5]pyrrolo[1,2-α]pyrazine-2-carboxamides as RSK inhibitors” (Phoenix Molecular Designs, priority 2016, dated 2018)
# Marks after values point to notes of the source that are not given here.
# Tests used:
# [1] = test system: SUM149 cells; assay: Monolayer growth inhibition, crystal violet assay; format: cell-based; settings: Homo sapiens, SUM149, SUM149 (TNBC, BRCA Mutant), 5 days, single dose on day 1
# Source text: (§1) In all instances a single dose was given on day 1 of the experiment.
# [2] = test system: 4T1 cells; assay: Monolayer growth inhibition, crystal violet assay; format: cell-based; settings: Mus musculus, 4T1, 4T1 (TNBC), 5 days, single dose on day 1
# Source text: as §1
# [3] = test system: HCC1143 cells; assay: Monolayer growth inhibition, crystal violet assay; format: cell-based; settings: Homo sapiens, HCC1143, HCC1143 (TNBC), 5 days, single dose on day 1
# Source text: as §1
# [4] = test system: JIMT-1 cells; assay: Monolayer growth inhibition, Alamar blue assay; format: cell-based; settings: Homo sapiens, JIMT-1, JIMT-1 (HER2), 5 days, single dose on day 1
# Source text: as §1
# [5] = test system: PC3 cells; assay: Monolayer growth inhibition, Alamar blue assay; format: cell-based; settings: Homo sapiens, PC-3; PC3 (Prostate), 5 days, single dose on day 1
# Source text: as §1
# [6] = test system: HCC1937 cells; assay: Monolayer growth inhibition, Alamar blue assay; format: cell-based; settings: Homo sapiens, HCC1937, HCC1937 (TNBC, BRCA Mutant), 5 days, single dose on day 1
# Source text: as §1
# [7] = test system: 4T1 cells; assay: Monolayer growth inhibition, Alamar blue assay; format: cell-based; settings: Mus musculus, 4T1, 4T1 (TNBC), 5 days, single dose on day 1
# Source text: as §1
# [8] = test system: MDA-MB-231 cells; assay: Soft agar growth inhibition assay; format: cell-based; settings: Homo sapiens, MDA-MB-231; growth in soft agar (SA); read-out: MDA-MB-231 IC50 (SA)
# [9] = test system: MDA-MB-468 cells; assay: Soft agar growth inhibition assay; format: cell-based, Human; settings: MDA-MB-468 (TNBC), 14-22 days
# [10] = test system: phosphorylated Y-box binding protein-1 (YB-1) at serine 102 (P-YB-1S102); assay: Immunoblotting of cell signalling, loss of P-YB-1 in MDA-MB-231 cells
# [11] = test system: JIMT-1 cells; assay: Immuno-oncology gene expression (HLA-DRA, CIITA, CD274 mRNA); format: cell-based, Human
# Source text: (§2) A key feature of cancer is low immunogenicity. This can occur by several mechanisms that allow the cells to escape immune recognition. […] HLA-DRA is a member of MHC-II genes and CIITA is the master regulator of MHC II transcription. Thus it was surprising that CIITA, which would be expected to regulate MHC II gene expression, was not altered by RSK inhibition. […] HLA-DRA is important for immune recognition while PD-L1 is involved in immune checkpoints.
# [12] = test system: MDA-MB-231 cells; assay: as above; format: cell-based, Human; settings: Compound 16 2 or 4 uM, Compound 18 1, 2, or 4 uM
# Source text: as §2
# [13] = test system: JIMT-1 cells; assay: Monolayer growth inhibition, crystal violet assay; format: cell-based; settings: Homo sapiens, JIMT-1, JIMT-1 (HER2), 5 days, single dose on day 1
# Source text: (§3) In all instances a single dose was given on day 1 of the experiment. […] Complete (100%) growth suppression was achievable with several of the compounds in multiple different cell lines.
# [14] = test system: HCC1937 cells; assay: Monolayer growth inhibition, crystal violet assay; format: cell-based; settings: Homo sapiens, HCC1937, HCC1937 (TNBC, BRCA Mutant), 5 days, single dose on day 1
# Source text: as §3
# [15] = test system: MDA-MB-468 cells; assay: Monolayer growth inhibition, crystal violet assay; format: cell-based; settings: Homo sapiens, MDA-MB-468, MDA-MB-468 (TNBC), 5 days, single dose on day 1
# Source text: as §3
# [16] = test system: T47D cells; assay: Monolayer growth inhibition, crystal violet assay; format: cell-based; settings: Homo sapiens, T47D, T47D (ER/PR), 5 days, single dose on day 1
# Source text: as §3
# [17] = test system: MDA-MB-231 cells; assay: Combination with paclitaxel, monolayer growth (crystal violet); settings: MDA-MB-231, 5 days
# Protocol: 1×10^3 cells per well were seeded for a final volume of 200 μl per well and plates were incubated for 5 days at 37° C. in a humidified incubator with 5% CO2. Following the incubation period, cell survival was quantified by Alamar blue assay (Life Technologies). Briefly, media from each well was replaced with 100 μl of phosphate buffer saline (PBS, Life Technologies) and cells were incubated with 5% Alamar blue, which incorporates a propriety redox indicator that changes colour in response to metabolic activity, for up to 2 hours. During this period of incubation, the absorbance at 570 nm and 600 nm was measured at various time points, depending on the cell line or sample. Percent survival was calculated by comparing the absorbance ratio of the test well to the control well multiplied by 100%, as indicated in the following formula:
# Following, plates were prepared for crystal violet staining. To begin, 100 μl of an 8% formaldehyde (Alfa Aesar) solution diluted in PBS was added to each well and plates were stored at 4° C. overnight. Next, the formaldehyde solution was discarded and the wells were washed with 200 μl ultrapure water per well three times. Following, 50 μl of a 0.5% crystal violet solution (0.5% w/v crystal violet (Alfa Aesar), 25% methanol (VWR)) was added to each well and incubated at room temperature for 20 minutes. The crystal violet solution was discarded and wells were washed with 200 μl ultrapure water per well three times. Next, 50 μl of a 5% sodium dodecyl sulphate (SDS) (Alfa Aesar) was added to each well and the absorbance at 590 nm was measured.
# [18] = test system: SUM149-PTXR cells; assay: Monolayer growth inhibition, Alamar blue assay; format: cell-based, Human; settings: SUM149-PTXR (TNBC, BRCA Mutant), 5 days, single dose on day 1
# Source text: as §1
# [19] = test system: T47D cells; assay: Monolayer growth inhibition, Alamar blue assay; format: cell-based, Human; settings: T47D (ER/PR), 5 days, single dose on day 1
# Source text: as §1
# [20] = target: RSK2 (Homo sapiens (Human), UniProt P51812); assay: Radioisotope kinase assay (SignalChem), RSK2; format: biochemical; settings: 33P-ATP, 30° C., 15 minutes
# Sequence of RSK2 (P51812 whole entry): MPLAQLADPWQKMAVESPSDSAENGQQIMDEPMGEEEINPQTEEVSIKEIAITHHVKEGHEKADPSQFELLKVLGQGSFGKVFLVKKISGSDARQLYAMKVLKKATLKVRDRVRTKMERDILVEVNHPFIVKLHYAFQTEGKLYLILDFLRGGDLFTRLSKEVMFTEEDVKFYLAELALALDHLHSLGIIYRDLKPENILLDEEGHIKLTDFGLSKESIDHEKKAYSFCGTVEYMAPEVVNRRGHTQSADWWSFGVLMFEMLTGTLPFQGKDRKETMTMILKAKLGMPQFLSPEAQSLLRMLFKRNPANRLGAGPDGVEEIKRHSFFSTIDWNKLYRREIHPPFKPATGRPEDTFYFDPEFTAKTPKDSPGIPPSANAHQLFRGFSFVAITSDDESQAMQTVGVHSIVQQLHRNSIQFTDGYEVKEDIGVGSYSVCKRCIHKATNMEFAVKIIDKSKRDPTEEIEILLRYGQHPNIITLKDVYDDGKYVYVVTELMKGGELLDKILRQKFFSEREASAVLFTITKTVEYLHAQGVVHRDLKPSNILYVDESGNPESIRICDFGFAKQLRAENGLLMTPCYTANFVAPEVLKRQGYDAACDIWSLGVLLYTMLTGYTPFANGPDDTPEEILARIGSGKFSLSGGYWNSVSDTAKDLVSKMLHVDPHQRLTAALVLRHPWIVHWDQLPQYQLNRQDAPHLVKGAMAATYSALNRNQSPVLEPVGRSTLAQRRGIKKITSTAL
# Protocol: The assay conditions for the RSK2 kinase target were optimized to yield acceptable enzymatic activity. In addition, the assays were optimized to give high signal-to-noise ratio.
# Radioisotope assays (SignalChem) were performed for the evaluation of the kinase target profiling and all assays were performed in a designated radioactive working area. The kinase targets were RSK1, RSK2, RSK3, RSK4 and MK2.
# The assay was initiated by the addition of ^33P-ATP and the reaction mixture incubated at 30° C. for 15 minutes. After the incubation period, the assay was terminated by spotting 10 μL of the reaction mixture onto Multiscreen phosphocellulose P81 plate. The Multiscreen phosphocellulose P81 plate was washed 3 times for approximately 15 minutes each in a 1% phosphoric acid solution. The radioactivity on the P81 plate was counted in the presence of scintillation fluid in a Trilux scintillation counter.
# Blank controls were set up for each target kinase which included all the assay components except the addition of the appropriate substrate (which was replaced with equal volume of assay dilution buffer). The corrected activity for each target kinase was determined by removing the blank control value.
smiles,measurement,setting,value
"C[C@@H]1CNC(=O)c2cc3ccc(C(=O)Nc4cnn(Cc5ccc(N)cc5)c4)nc3n21 [Compound 18, (R)—N-(1-(4-aminobenzyl)-1H-pyrazol-4-yl)-9-methyl-6-oxo-6,7,8,9-tetrahydropyrido[3′,2′:4,5]pyrrolo[1,2-a]pyrazine-2-carboxamide]",IC50,[1],2400 ± 700 nM
same,IC50,[2],5300 ± 1100 nM
same,IC50,[3],2400 ± 800 nM
same,IC50,[4],13100 ± 6400 nM
same,IC50,[5],5500 ± 500 nM
same,IC50,[6],9200 ± 1100 nM
same,IC50,[7],5300 ± 2500 nM
same,IC50,[8],100 nM
same,IC50,[9],300 ± 100 nM
same,Loss of P-YB-1,"[10]; MDA-MB-231 cells, 0.01, 0.1, 1, or 10 uM, 24 hrs",dose dependent loss of P-YB-1
same,Loss of P-YB-1,"[10]; MDA-MB-231 cells, 0.01-1 uM, 96 hrs",dose dependent loss of P-YB-1
same,HLA-DRA mRNA,[11],elevated levels of HLA-DRA mRNA
same,mRNA expression of CIITA,[11],little effect
same,CD274 (gene encoding PD-L1) levels,[11]; 1-20 uM,inhibited CD274
same,CD274 (gene encoding PD-L1) levels,[12],reduced levels of CD274
same,HLA-DRA mRNA,[12],elevated levels of HLA-DRA mRNA
same,mRNA expression of CIITA,[12],little effect
same,IC50,[13],11100 ± 500 nM
same,IC50,[14],7700 ± 3500 nM
same,IC50,[15],2300 ± 900 nM
same,IC50,[16],2200 ± 800 nM
same,Coefficient of Drug Interaction (CDI),[17]; Compound 18 0.2 μM with paclitaxel (0.3 nM),1.6
same,Coefficient of Drug Interaction (CDI),[17]; Compound 18 0.4 μM with paclitaxel (0.3 nM),1.2
same,Coefficient of Drug Interaction (CDI),"[17]; Compound 18 0.8 μM with paclitaxel (0.3 nM), considered synergistic",0.8*
same,Coefficient of Drug Interaction (CDI),"[17]; Compound 18 1.6 μM with paclitaxel (0.3 nM), considered synergistic",0.4*
same,Coefficient of Drug Interaction (CDI),"[17]; Compound 18 3.1 μM with paclitaxel (0.3 nM), considered synergistic",0.2*
same,Coefficient of Drug Interaction (CDI),"[17]; Compound 18 […] with paclitaxel (0.3 nM), considered synergistic",0.4*
same,IC50,[18],2100 ± 300 nM
same,IC50,[19],3600 ± 1700 nM
same,IC50,[20],20 nM
